Source: patent publication US12180187B2, “1-phenyl-5-azinylpyrazolyl-3-oxyalkyl acids and their use for controlling unwanted plant growth” (BAYER AKTIENGESELLSCHAFT, priority 2019, dated 2024)
Where “and” joins values, the source holds several entries; their conditions need not be identical. Equal values may be shown once.

Legend:
[1] = test system: POLCO; assay: Post-emergence action at 320 g/ha against POLCO; type: in vivo, Fallopia convolvulus (Polygonum convolvulus); settings: visual rating about 3 weeks after treatment vs untreated controls
Procedure, shortened: (§1)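 Greenhouse-grown plants sprayed post-emergence at the one-leaf stage, 2 to 3 weeks after sowing, with WP or EC formulations plus 0.5% additive at 600 l/ha water, at 320 g/ha. Activity rated visually after about 3 weeks versus untreated controls (100% = plants died, 0% = like control).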

[2] = test system: ABUTH; assay: Post-emergence action against ABUTH, 1.28 kg/ha; type: in vivo, Abutilon theophrasti; settings: dosage 1280 g/ha, visual rating about 3 weeks after treatment vs untreated controls (100% = plants died)
Procedure, shortened: (§2)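 Foliar application at the one-leaf stage: compound as WP or EC in water with 0.5% additive, sprayed at 600 L/ha. Plants are kept about 3 weeks in the greenhouse, then % herbicidal action is estimated visually (100% = death).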

[3] = test system: DIGSA; assay: Post-emergence action at 320 g/ha against DIGSA; type: in vivo, Digitaria sanguinalis; settings: dosage 320 g/ha, visual rating about 3 weeks after treatment vs untreated controls (100% = plants died)
Procedure, shortened: as §1

[4] = test system: DIGSA; assay: Pre-emergence action against DIGSA, 1280 g/ha; type: in vivo, Digitaria sanguinalis; settings: visual scoring after about 3 weeks vs untreated controls, 100% = plants have died, 0% = like control plants
Procedure, shortened: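 Sandy loam pots, seeds covered with soil; aqueous WP/EC spray on covering soil, 0.5% additive, 600 L/ha. Greenhouse growth, good conditions. Readout: visual % activity at ~3 weeks (0% = like control, 100% = dead).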

[5] = test system: SETVI; assay: Post-emergence action at 320 g/ha against SETVI; type: in vivo, Setaria viridis; settings: visual rating about 3 weeks after treatment vs untreated controls
Procedure, shortened: as §1

[6] = test system: STEME; assay: Post-emergence action against STEME, 1.28 kg/ha; type: in vivo, Stellaria media; settings: dosage 1280 g/ha, visual rating about 3 weeks after treatment vs untreated controls (100% = plants died)
Procedure, shortened: as §2

[7] = test system: AMARE; assay: Post-emergence action against AMARE, 1.28 kg/ha; type: in vivo, Amaranthus retroflexus; settings: dosage 1280 g/ha, visual rating about 3 weeks after treatment vs untreated controls (100% = plants died)
Procedure, shortened: as §2

[8] = test system: PHBPU; assay: Post-emergence action at 320 g/ha against PHBPU; type: in vivo; settings: visual rating about 3 weeks after treatment vs untreated controls
Procedure, shortened: as §1

[9] = test system: ALOMY; assay: Post-emergence action against ALOMY, 1.28 kg/ha; type: in vivo, Alopecurus myosuroides; settings: dosage 1280 g/ha, visual rating about 3 weeks after treatment vs untreated controls
Procedure, shortened: as §2

[10] = test system: AMARE; assay: Post-emergence action at 320 g/ha against AMARE; type: in vivo, Amaranthus retroflexus; settings: visual rating about 3 weeks after treatment vs untreated controls
Procedure, shortened: as §1

[11] = test system: VERPE; assay: Post-emergence action against VERPE, 1.28 kg/ha; type: in vivo, Veronica persica; settings: dosage 1280 g/ha, visual rating about 3 weeks after treatment vs untreated controls (100% = plants died)
Procedure, shortened: as §2

[12] = test system: ECHCG; assay: Post-emergence action against ECHCG, 1.28 kg/ha; type: in vivo, Echinochloa crus-galli; settings: dosage 1280 g/ha, visual rating about 3 weeks after treatment vs untreated controls
Procedure, shortened: as §2

[13] = test system: ALOMY; assay: Post-emergence action against ALOMY, 320 g/ha; type: in vivo, Alopecurus myosuroides; settings: dosage 320 g/ha, visual rating about 3 weeks after treatment vs untreated controls (100% = plants died)
Procedure, shortened: as §1

[14] = test system: LOLRI; assay: Pre-emergence action at 320 g/ha against LOLRI; type: in vivo, Lolium rigidum; settings: visual scoring after about 3 weeks vs untreated controls
Procedure, shortened: (§3)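 Pre-emergence soil-surface spray: WP or EC formulation, aqueous, 0.5% additive, 600 l/ha water volume. Greenhouse growth about 3 weeks; visual percent effect relative to untreated pots.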

[15] = test system: MATIN; assay: Pre-emergence action at 320 g/ha against MATIN; type: in vivo, Tripleurospermum inodorum (Matricaria inodora); settings: visual scoring after about 3 weeks vs untreated controls
Procedure, shortened: as §3

[16] = test system: MATIN; assay: Post-emergence action against MATIN, 1.28 kg/ha; type: in vivo, Tripleurospermum inodorum (Matricaria inodora); settings: dosage 1280 g/ha, visual rating about 3 weeks after treatment vs untreated controls (100% = plants died)
Procedure, shortened: as §2

Row | Compound | Post-emergence action against POLCO in % [1] | Post-emergence action against ABUTH [2] | Post-emergence action at 320 g/ha against DIGSA in % [3] | Pre-emergence action against DIGSA [4] | Post-emergence action against SETVI in % [5] | Post-emergence action against STEME [6] | Post-emergence action against AMARE [7] | Post-emergence action against PHBPU in % [8] | Post-emergence action against ALOMY [9] | Post-emergence action against AMARE in % [10] | Post-emergence action against VERPE [11] | Post-emergence action against ECHCG [12] | Post-emergence action against ALOMY [13] | Pre-emergence action against LOLRI in % [14] | Pre-emergence action against MATIN in % [15] | Post-emergence action against MATIN [16] | further results
1 | COC(=O)CNC(=O)COc1nn(-c2ccccc2F)c(-c2ccc(F)nc2)c1Br [Example X-002] | 90% | 90% | 100% | 100% | 90% | 90% | 90% | 90% | 90% | 100% | 90% | 90% | 100% | 100% | 100% |  | 
2 | CS(=O)(=O)NC(=O)COc1nn(-c2ccccc2F)c(-c2ccc(F)nc2)c1Br [Example X-004] | 80% |  | 90% | 90% | 90% | 100% | 100% | 90% | 100% | 90% | 100% | 100% | 100% | 100% | 90% | 90% | 
3 | CN(C)S(=O)(=O)NC(=O)COc1nn(-c2ccccc2F)c(-c2ccc(F)nc2)c1Br [Example X-005] | 80% | 90% | 90% | 100% | 90% | 90% | 100% | 80% | 100% | 80% | 100% | 100% | 90% | 100% | 100% | 100% | 
4 | CCOC(=O)COc1nn(-c2ccccc2F)c(-c2ccc(F)nc2)c1C(F)(F)F [VII-010] | 80% | 90% | 90% | 100% | 90% | 100% |  | 90% | 100% | 90% | 90% | 100% | 90% | 100% | 100% | 90% | 
5 | CCOC(=O)COc1nn(-c2ccccc2F)c(-c2ccc(F)nc2)c1Br [VII-012, Ethyl {[4-bromo-1-(2-fluorophenyl)-5-(6-fluoropyridin-3-yl)-1H-pyrazol-3-yl]oxy}acetate] |  | 100% |  | 100% | 100% and 80% | 100% | 100% and 90% | 90% and 80% | 100% |  |  |  | 90% |  |  | 100% and 90% | pest or weed control at 320 g/ha ([1]; Fallopia convolvulus, 504 h): 90%; pest or weed control at 320 g/ha ([3]; Digitaria sanguinalis, 504 h): 80%; pest or weed control at 320 g/ha ([10]; Amaranthus retroflexus, 504 h): 90%; pest or weed control at 1280 g/ha ([11]; Veronica persica, 504 h): 90%; pest or weed control at 1280 g/ha ([12]; Echinochloa crus-galli, 504 h): 100%; pest or weed control at 320 g/ha ([14]; Lolium rigidum, 504 h): 90%; pest or weed control at 320 g/ha ([15]; Tripleurospermum inodorum, 504 h): 90%
6 | CCOC(=O)COc1nn(-c2ccccc2F)c(-c2cncc(F)c2)c1Br [VII-015] | 100% | 90% | 100% | 90% | 100% | 100% | 90% | 90% | 100% | 90% | 100% | 100% | 90% | 90% | 100% | 100% | 
7 | CCOC(=O)C(C)Oc1nn(-c2ccccc2F)c(-c2ccc(F)nc2)c1Br (stereo not shown) [VII-019] | 90% |  | 90% | 100% | 80% | 100% | 90% | 90% | 100% | 80% | 90% | 100% | 100% | 100% | 100% |  | 
8 | O=C(O)COc1nn(-c2ccccc2F)c(-c2cncc(F)c2)c1Br [VII-025] | 90% | 90% | 100% | 100% | 100% | 100% | 90% | 90% | 100% | 90% | 100% | 100% | 100% | 90% | 100% | 90% | 
9 | COC(=O)COc1nn(-c2ccccc2F)c(-c2ccc(F)nc2)c1C(F)(F)F [VII-031] | 90% | 90% | 100% | 100% | 90% | 100% | 90% | 90% | 100% | 90% | 100% | 100% | 100% | 100% | 100% | 100% | 
10 | COC(=O)C(C)Oc1nn(-c2ccccc2)c(-c2cccnc2)c1Cl (stereo not shown) [VII-032] | 80% | 90% | 90% | 90% | 80% | 100% | 100% | 90% |  | 90% | 100% | 100% | 90% | 100% | 90% | 90% | 
